Laboratory results taken from the NIST ThermoML archive (doi:10.1021/je1002829).

Assay: xn = mol fraction of the nth substance listed
Conditions: for mass density: 101 kPa, Liquid, Pycnometric method

CCCCCC(=O)O [hexanoic acid] + O
Conditions | mass density, 293.15 K [kg/m3] | mass density, 298.15 K [kg/m3] | mass density, 303.15 K [kg/m3] | mass density, 308.15 K [kg/m3] | surface tension liquid-gas, 293.15 K [mN/m] | surface tension liquid-gas, 298.15 K [mN/m] | surface tension liquid-gas, 303.15 K [mN/m] | surface tension liquid-gas, 308.15 K [mN/m]
x1 = 8e-05 | – | – | – | – | 63.26 | 62.69 | 62.67 | 62.16
x1 = 0.00015 | 998.24 | 997.08 | 995.67 | 994.07 | – | – | – | –
x1 = 0.00016 | – | – | – | – | 56.6 | 56.02 | 56.09 | 56.02
x1 = 0.00023 | – | – | – | – | 52.29 | 51.8 | 51.81 | 51.94
x1 = 0.00032 | – | – | – | – | 48.25 | 47.98 | 47.93 | 48.06
x1 = 0.00037 | – | – | – | – | 46.55 | 46.17 | 45.98 | 46.29
x1 = 0.00043 | 998.28 | 997.12 | 995.68 | 994.07 | – | – | – | –
x1 = 0.00046 | – | – | – | – | 44.03 | 43.54 | 43.22 | 43.67
x1 = 0.00051 | – | – | – | – | 42.83 | 42.62 | 42.44 | 42.6
x1 = 0.0006 | 998.31 | 997.14 | 995.72 | 994.09 | – | – | – | –
x1 = 0.00062 | – | – | – | – | 40.57 | 40.6 | 40.57 | 40.45
x1 = 0.00069 | – | – | – | – | 39.19 | 39.02 | 38.98 | 38.89
x1 = 0.00077 | – | – | – | – | 37.72 | 37.36 | 37.36 | 37.2
x1 = 0.00084 | – | – | – | – | 36.64 | 36.28 | 36.21 | 36.07
x1 = 0.00091 | – | – | – | – | 35.66 | 35.23 | 35.04 | 34.96
x1 = 0.00106 | 998.36 | 997.18 | 995.77 | 994.1 | – | – | – | –
x1 = 0.0011 | – | – | – | – | 33.79 | 33.17 | 32.82 | 32.46
x1 = 0.00115 | – | – | – | – | 33.55 | 32.94 | 32.57 | 32.11
x1 = 0.00143 | 998.42 | 997.22 | 995.77 | 994.12 | – | – | – | –
x1 = 0.00148 | 998.43 | 997.23 | 995.79 | 994.12 | – | – | – | –
x1 = 0.0018 | 998.47 | 997.25 | 995.81 | 994.13 | – | – | – | –
x1 = 0.00195 | 998.49 | 997.28 | 995.82 | 994.15 | – | – | – | –
x1 = 0.00205 | 998.5 | 997.29 | 995.83 | 994.14 | – | – | – | –
x1 = 0.00222 | 998.52 | 997.29 | 995.83 | 994.16 | – | – | – | –
x1 = 0.00228 | 998.54 | 997.31 | 995.84 | 994.16 | – | – | – | –
x1 = 0.0025 | 998.56 | 997.33 | 995.86 | 994.18 | – | – | – | –
x1 = 0.00271 | 998.58 | 997.35 | 995.88 | 994.19 | – | – | – | –
x1 = 0.00289 | 998.62 | 997.37 | 995.89 | 994.19 | – | – | – | –
x1 = 0.00305 | 998.63 | 997.4 | 995.91 | 994.21 | – | – | – | –
x1 = 0.0035 | 998.69 | 997.43 | 995.94 | 994.23 | – | – | – | –

CCCCC(=O)O [pentanoic acid] + O
Conditions | mass density, 293.15 K [kg/m3] | mass density, 298.15 K [kg/m3] | mass density, 303.15 K [kg/m3] | mass density, 308.15 K [kg/m3] | surface tension liquid-gas, 293.15 K [mN/m] | surface tension liquid-gas, 298.15 K [mN/m] | surface tension liquid-gas, 303.15 K [mN/m] | surface tension liquid-gas, 308.15 K [mN/m]
x1 = 0.00015 | 998.24 | 997.08 | 995.67 | 994.07 | – | – | – | –
x1 = 0.00016 | – | – | – | – | 63.92 | 64.63 | 63.6 | 63.01
x1 = 0.00043 | 998.28 | 997.12 | 995.68 | 994.07 | – | – | – | –
x1 = 0.00048 | – | – | – | – | 57.45 | 57.4 | 56.82 | 56.37
x1 = 0.00056 | – | – | – | – | 56.19 | 56.09 | 55.49 | 55.07
x1 = 0.0006 | 998.31 | 997.14 | 995.72 | 994.09 | – | – | – | –
x1 = 0.00083 | – | – | – | – | 52.45 | 52.12 | 51.63 | 51.27
x1 = 0.00099 | – | – | – | – | 50.54 | 50.05 | 49.71 | 49.38
x1 = 0.00106 | 998.36 | 997.18 | 995.77 | 994.1 | – | – | – | –
x1 = 0.00121 | – | – | – | – | 48.25 | 47.66 | 47.43 | 47.13
x1 = 0.00143 | 998.42 | 997.22 | 995.77 | 994.12 | – | – | – | –
x1 = 0.00148 | 998.43 | 997.23 | 995.79 | 994.12 | – | – | – | –
x1 = 0.0015 | – | – | – | – | 45.82 | 45.32 | 44.93 | 44.64
x1 = 0.00173 | – | – | – | – | 44.26 | 43.88 | 43.28 | 43
x1 = 0.0018 | 998.47 | 997.25 | 995.81 | 994.13 | – | – | – | –
x1 = 0.00195 | 998.49 | 997.28 | 995.82 | 994.15 | – | – | – | –
x1 = 0.00196 | – | – | – | – | 42.94 | 42.57 | 41.86 | 41.59
x1 = 0.00205 | 998.5 | 997.29 | 995.83 | 994.14 | – | – | – | –
x1 = 0.00219 | – | – | – | – | 41.78 | 41.26 | 40.63 | 40.36
x1 = 0.00222 | 998.52 | 997.29 | 995.83 | 994.16 | – | – | – | –
x1 = 0.00228 | 998.54 | 997.31 | 995.84 | 994.16 | – | – | – | –
x1 = 0.0025 | 998.56 | 997.33 | 995.86 | 994.18 | – | – | – | –
x1 = 0.00259 | – | – | – | – | 39.97 | 39.16 | 38.8 | 38.54
x1 = 0.00271 | 998.58 | 997.35 | 995.88 | 994.19 | – | – | – | –
x1 = 0.00283 | – | – | – | – | 38.97 | 38.18 | 37.81 | 37.57
x1 = 0.00289 | 998.62 | 997.37 | 995.89 | 994.19 | – | – | – | –
x1 = 0.00299 | – | – | – | – | 38.32 | 37.6 | 37.18 | 36.94
x1 = 0.00305 | 998.63 | 997.4 | 995.91 | 994.21 | – | – | – | –
x1 = 0.00326 | – | – | – | – | 37.25 | 36.51 | 36.1 | 35.9
x1 = 0.00349 | – | – | – | – | 36.38 | 35.61 | 35.15 | 34.97
x1 = 0.0035 | 998.69 | 997.43 | 995.94 | 994.23 | – | – | – | –
